We go through 13 compounds from ChEMBL document CHEMBL3351305, “Structure-based design of a novel series of azetidine inhibitors of the hepatitis C virus NS3/4A serine protease” (Bioorg Med Chem Lett, 2014).

Data set [1] concerns the target Hepatitis C virus serine protease, NS3/NS4A (Hepatitis C virus, UniProt A3EZI9+D2K2A8). The data set can be described thus: Inhibition of full length Hepatitis C virus genotype 1b Con1 NS3/4A by FRET assay. The arrangement: species or system Hepatitis C virus (isolate Con1).
A further data set relates to Hepatitis C virus. The data set can be described thus: Antiviral activity against Hepatitis C virus genotype 1b Con1 infected in human Huh7 cells assessed as inhibition of NS4A expression by ELISA. Format: functional, cell-based, Hepacivirus hominis. As to conditions: genotype 1b Con1, Huh-7. On the technique in general: An ELISA detects its analyte on a solid surface through an enzyme-linked reagent.

For data set [2], the system named is Hepatitis C virus serine protease, NS3/NS4A (Hepatitis C virus), D2K2A8+A3EZI9 [A156S]. The data set can be described thus: Inhibition of Hepatitis C virus genotype 1b Con1 NS3/4A A156S mutant by FRET assay. As to conditions: Hepatitis C virus (isolate Con1).
Data set [3] in a line: Inhibition of human leukocyte elastase.
Data set [4] in a line: Clearance in rat liver microsomes assessed per mg protein. Format: ADME. The note with it: read-out: CLH. (Liver microsomes are a subcellular fraction often used to study metabolism.)
The nature of data set [5]: Clearance in cynomolgus monkey liver microsomes assessed per mg protein. Format: ADME, Macaca fascicularis. As to conditions: read-out: CLH.
The nature of data set [6]: Clearance in human liver microsomes assessed per mg protein. Format: ADME. As to conditions: read-out: CLH.
Data set [7] in a line: Half life in rat liver microsomes. Format: ADME.
The nature of data set [8]: Half life in cynomolgus monkey liver microsomes. Format: ADME, Macaca fascicularis.
A short description of data set [9]: Half life in human liver microsomes. Format: ADME.
Data set [10] can be described thus: Selectivity index, ratio of CC50 for human Huh7 cells to EC50 for Hepatitis C virus genotype 1b Con1. The note with it: read-out: Ratio CC50/EC50. Format: toxicity, cell-based, Huh-7.

Molecules are shown by their SMILES. Activity calls are given as the source filed them. The rule behind the calls is not given here. Some results are limits rather than exact numbers.

Chain of Hepatitis C virus serine protease, NS3/NS4A (D2K2A8 whole entry): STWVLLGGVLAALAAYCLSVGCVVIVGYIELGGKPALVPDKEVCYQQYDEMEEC
Chain of Hepatitis C virus serine protease, NS3/NS4A (A3EZI9 whole entry): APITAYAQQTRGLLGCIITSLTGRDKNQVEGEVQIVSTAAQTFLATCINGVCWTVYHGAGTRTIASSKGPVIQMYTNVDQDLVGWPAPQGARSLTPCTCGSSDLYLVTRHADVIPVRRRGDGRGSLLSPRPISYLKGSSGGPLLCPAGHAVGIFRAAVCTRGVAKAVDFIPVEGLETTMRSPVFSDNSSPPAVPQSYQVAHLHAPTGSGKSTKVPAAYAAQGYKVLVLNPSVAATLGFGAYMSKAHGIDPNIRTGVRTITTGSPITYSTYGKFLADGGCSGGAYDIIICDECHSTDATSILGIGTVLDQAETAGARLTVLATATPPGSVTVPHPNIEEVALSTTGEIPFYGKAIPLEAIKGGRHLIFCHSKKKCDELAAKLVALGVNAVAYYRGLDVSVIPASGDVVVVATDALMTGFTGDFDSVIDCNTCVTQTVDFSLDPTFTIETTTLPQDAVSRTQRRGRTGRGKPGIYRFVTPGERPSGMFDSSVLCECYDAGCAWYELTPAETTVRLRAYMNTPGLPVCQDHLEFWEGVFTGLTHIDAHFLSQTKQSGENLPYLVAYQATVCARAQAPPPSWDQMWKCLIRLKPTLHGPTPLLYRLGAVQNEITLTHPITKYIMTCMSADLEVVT

The term IC50 denotes the point on the concentration scale where inhibition reaches its midpoint. A word on the EC50: it is the concentration that produces a half-maximal response. With `COc1ccc2c(OC[C@@H]3C[C@H]4C(=O)N(C)CCCC/C=C\[C@H]5C[C@]5(C(=O)NS(=O)(=O)C5(C)CC5)NC(=O)N34)cc(-c3nc(C(C)C)cs3)nc2c1`, the midpoint of inhibition in [1], the IC50, lay at 1.3 nM. For the same compound, the concentration giving a half-maximal response (EC50) in the data set with Hepatitis C virus was found to be 412 nM.
In [1], `COc1ccc2c(OC[C@@H]3C[C@H]4C(=O)N[C@@]5(C(=O)NS(=O)(=O)C6CC6)C[C@@H]5/C=C\CCCCN(C)C(=O)N34)cc(-c3ccccc3)nc2c1` showed an IC50 of 2400 nM.
As for `CCC[C@H](NC(=O)[C@@H]1[C@H]2CCC[C@H]2CN1C(=O)[C@@H](NC(=O)[C@@H](NC(=O)c1cnccn1)C1CCCCC1)C(C)(C)C)C(=O)C(=O)NC1CC1` [TELAPREVIR], the inhibition entry in data set [2] was “inactive”. Besides, in data set [3], the IC50 amounted to 600 nM.
In turn, `COc1ccc2c(O[C@@H]3C[C@H]4C(=O)N[C@]5(C(=O)O)C[C@H]5/C=C\CCCCC[C@H](NC(=O)OC5CCCC5)C(=O)N4C3)cc(-c3csc(NC(C)C)n3)nc2c1` [CILUPREVIR] yielded a concentration for half-maximal inhibition (IC50) in data set [1] of 0.8 nM. Further, the concentration giving a half-maximal response (EC50) with Hepatitis C virus is 2.8 nM.
As to `COc1ccc2c(OC[C@H]3C[C@@H]4C(=O)N[C@@]5(C(=O)NS(=O)(=O)C6CC6)C[C@@H]5/C=C\CCCCN(C)C(=O)N34)cc(-c3ccccc3)nc2c1`, 278 nM corresponded to half-maximal inhibition in [1] (IC50).
In the case of `COc1ccc2c(OC[C@@H]3C[C@H]4C(=O)N(C)CCCC/C=C\[C@H]5C[C@]5(C(=O)NS(=O)(=O)C5(C)CC5)NC(=O)N34)cc(-c3nc(C(C)C)cs3)nc2c1F`, in data set [1], the IC50 is 16.8 nM. Further, the concentration for a half-maximal effect (EC50) in the data set on Hepatitis C virus came to 872 nM. Moreover, the inhibition result in data set [2] was “inactive”.
Broadly, the half-life is how long it takes for the measured level to halve. For `COc1ccc2c(OC[C@@H]3C[C@H]4C(=O)N(C)CCCC/C=C\[C@H]5C[C@]5(C(=O)NS(=O)(=O)C5(C)CC5)NC(=O)N34)cc(-c3nc(C(C)C)cs3)nc2c1C`, half-maximal inhibition in [1] (IC50) was put at 6.6 nM. Also, the half-maximal effective concentration (EC50) with Hepatitis C virus turned out to be 45 nM. The microsomal CLint in data set [4], in data set [5] and in data set [6] was above 150 µL/min/mg throughout. Besides, the half-life in data set [7], in data set [8] and in data set [9] was below 10 min each time.
Compound `COc1ccc2c(OC[C@@H]3C[C@H]4C(=O)N(C)CCCC/C=C\[C@H]5C[C@]5(C(=O)NS(=O)(=O)C5CC5)NC(=O)N34)cc(-c3nc(C(C)C)cs3)nc2c1C` had a concentration for half-maximal inhibition (IC50) in [1] below 1000 nM. For the same compound, the 50% effective concentration (EC50) in the data set on Hepatitis C virus is below 750 nM.
Compound `COc1ccc2c(OC[C@@H]3C[C@H]4C(=O)N(C)CCCC/C=C\[C@H]5C[C@]5(C(=O)NS(=O)(=O)C5(C)CC5)NC(=O)N34)cc(-c3nc(C(C)C)cs3)nc2c1Cl` yielded an IC50 in data set [1] of 2.1 nM. For the same compound, in the data set with Hepatitis C virus, the EC50 came to 60 nM. The selectivity ratio in data set [10] is above 1500. The microsomal CLint in data set [4], in data set [5] and in data set [6] was above 150 µL/min/mg throughout. In addition, the half-life in [7], in data set [8] and in data set [9] was below 10 min each time.
Take `COc1ccc2c(OC[C@H]3C[C@@H]4C(=O)N(C)CCCC/C=C\[C@H]5C[C@]5(C(=O)NS(=O)(=O)C5CC5)NC(=O)N34)cc(-c3ccccc3)nc2c1`: the IC50 in data set [1] is 3.5 nM. Also, the half-maximal effective concentration (EC50) in the data set on Hepatitis C virus was 242 nM.
For `COc1ccc2c(OC[C@@H]3C[C@H]4C(=O)N(C)CCCC/C=C\[C@H]5C[C@]5(C(=O)NS(=O)(=O)C5CC5)NC(=O)N34)cc(-c3nc(C(C)C)cs3)nc2c1Cl`, the IC50 in data set [1] is below 1000 nM. Also, the half-maximal effective concentration (EC50) in the data set on Hepatitis C virus was below 750 nM.
Regarding `CC(C)(C)NC(=O)N[C@H](C(=O)N1C[C@H]2[C@@H]([C@H]1C(=O)NC(CC1CCC1)C(=O)C(N)=O)C2(C)C)C(C)(C)C` (some centres not stated), the inhibition result in data set [2] was “inactive”.
Compound `COc1ccc2c(OC[C@@H]3C[C@H]4C(=O)N(C)CCCC/C=C\[C@H]5C[C@]5(C(=O)NS(=O)(=O)C5CC5)NC(=O)N34)cc(-c3ccccc3)nc2c1` registered an IC50 in data set [1] of 45 nM. Also, the 50% effective concentration (EC50) with Hepatitis C virus was found to be 1860 nM.
